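96-well plates; 48 h exposure; 5 concentrations. Endpoints by linear interpolation between flanking doses. Not reached: highest tested concentration assigned. GI50 is the concentration that inhibits growth by half.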 Calls of active or inactive are those of the source. No stated cut-off is given here; in the data, active = GI50 up to about 1.1 µM and inactive = higher.
Columns and labels:
Experiment in all cases: DTP human tumour cell line panel, 48 h
HCC 2998 = tested on: HCC 2998
HCT-116 = tested on: HCT-116
UO-31 = tested on: UO-31
PC-3 = tested on: PC-3
T47D = tested on: T47D
NCI-H226 = tested on: NCI-H226
SR = tested on: SR
SK-MEL-2 = tested on: SK-MEL-2
CAKI-1 = tested on: CAKI-1
NCI-H23 = tested on: NCI-H23
K562 = tested on: K562
SNB-19 = tested on: SNB-19
A549 = tested on: A549
SK-MEL-5 = tested on: SK-MEL-5
SF-295 = tested on: SF-295
MDA-MB-231 = tested on: MDA-MB-231
UACC-257 = tested on: UACC-257
MDA-N = tested on: MDA-N
OVCAR-8 = tested on: OVCAR-8
SNB-75 = tested on: SNB-75

CCCCn1c(N)c(-c2nc3ccccc3o2)sc1=S
GI50 (HCC 2998): 36.1 µM (inactive)
GI50 (HCT-116): 10.5 µM (inactive)
GI50 (UO-31): 20 µM (inactive)
GI50 (PC-3): 23.4 µM (inactive)
GI50 (T47D): 19.3 µM (inactive)
GI50 (NCI-H226): 15.7 µM (inactive)
GI50 (SR): 17.7 µM (inactive)
GI50 (SK-MEL-2): 13.4 µM (inactive)
GI50 (CAKI-1): 13.7 µM (inactive)
GI50 (NCI-H23): 15.6 µM (inactive)
GI50 (K562): 22.3 µM (inactive)
GI50 (SNB-19): 41.3 µM (inactive)
GI50 (A549): 13.6 µM (inactive)
GI50 (SK-MEL-5): 14 µM (inactive)
GI50 (SF-295): 12.6 µM (inactive)
GI50 (MDA-MB-231): 16.8 µM (inactive)
GI50 (UACC-257): 60.7 µM (inactive)
GI50 (MDA-N): 15.6 µM (inactive)
GI50 (OVCAR-8): 17.5 µM (inactive)

Cc1cc(C)n(-c2nc(-n3nc(C)cc3C)nc(-n3nc(C)cc3C)n2)n1
GI50 (HCC 2998): > 100 µM (inactive)
GI50 (HCT-116): > 100 µM (inactive)
GI50 (UO-31): 43.3 µM (inactive)
GI50 (PC-3): > 100 µM (inactive)
GI50 (T47D): > 100 µM (inactive)
GI50 (NCI-H226): 35.8 µM (inactive)
GI50 (SR): > 100 µM (inactive)
GI50 (SK-MEL-2): > 100 µM (inactive)
GI50 (CAKI-1): 39.2 µM (inactive)
GI50 (NCI-H23): 88.7 µM (inactive)
GI50 (K562): 59.2 µM (inactive)
GI50 (SNB-19): > 100 µM (inactive)
GI50 (A549): > 100 µM (inactive)
GI50 (SK-MEL-5): > 100 µM (inactive)
GI50 (SF-295): > 100 µM (inactive)
GI50 (MDA-MB-231): > 100 µM (inactive)
GI50 (UACC-257): > 100 µM (inactive)
GI50 (MDA-N): > 100 µM (inactive)
GI50 (OVCAR-8): 68.9 µM (inactive)

CC(=O)OCCn1c(Cc2ccc([N+](=O)[O-])cc2)nn(C(C)=O)c1=O
GI50 (HCC 2998): > 100 µM (inactive)
GI50 (HCT-116): > 100 µM (inactive)
GI50 (UO-31): > 100 µM (inactive)
GI50 (PC-3): > 100 µM (inactive)
GI50 (T47D): > 100 µM (inactive)
GI50 (NCI-H226): > 100 µM (inactive)
GI50 (SR): > 100 µM (inactive)
GI50 (SK-MEL-2): > 100 µM (inactive)
GI50 (CAKI-1): > 100 µM (inactive)
GI50 (NCI-H23): > 100 µM (inactive)
GI50 (K562): > 100 µM (inactive)
GI50 (SNB-19): > 100 µM (inactive)
GI50 (A549): > 100 µM (inactive)
GI50 (SK-MEL-5): > 100 µM (inactive)
GI50 (SF-295): > 100 µM (inactive)
GI50 (MDA-MB-231): > 100 µM (inactive)
GI50 (UACC-257): > 100 µM (inactive)
GI50 (MDA-N): > 100 µM (inactive)
GI50 (OVCAR-8): > 100 µM (inactive)

CC(O)CNC1=CC(=O)C(=O)c2ccccc21 (stereo unspecified)
GI50 (HCC 2998): 11.7 µM (inactive)
GI50 (HCT-116): 16.1 µM (inactive)
GI50 (UO-31): 17.7 µM (inactive)
GI50 (PC-3): 22.3 µM (inactive)
GI50 (T47D): 20.9 µM (inactive)
GI50 (SR): 16.7 µM (inactive)
GI50 (SK-MEL-2): 16.4 µM (inactive)
GI50 (CAKI-1): 18.7 µM (inactive)
GI50 (NCI-H23): 16.5 µM (inactive)
GI50 (K562): 28.9 µM (inactive)
GI50 (SNB-19): 16.7 µM (inactive)
GI50 (A549): 19 µM (inactive)
GI50 (SK-MEL-5): 2.82 µM (inactive)
GI50 (SF-295): 13.5 µM (inactive)
GI50 (MDA-MB-231): 22 µM (inactive)
GI50 (UACC-257): 16 µM (inactive)
GI50 (MDA-N): 18.4 µM (inactive)
GI50 (SNB-75): 14.9 µM (inactive)

Clc1ccc(NCc2nnc(COc3ccc(OCc4nnc(CNc5ccc(Cl)cc5)o4)c(Cl)c3)o2)cc1
GI50 (HCC 2998): > 100 µM (inactive)
GI50 (HCT-116): > 100 µM (inactive)
GI50 (UO-31): 26.4 µM (inactive)
GI50 (PC-3): 24 µM (inactive)
GI50 (T47D): > 100 µM (inactive)
GI50 (NCI-H226): 23.3 µM (inactive)
GI50 (SR): 0.303 µM (active)
GI50 (SK-MEL-2): 14 µM (inactive)
GI50 (CAKI-1): 28.7 µM (inactive)
GI50 (NCI-H23): 44 µM (inactive)
GI50 (SNB-19): > 100 µM (inactive)
GI50 (A549): 49 µM (inactive)
GI50 (SK-MEL-5): 5.7 µM (inactive)
GI50 (SF-295): 20.7 µM (inactive)
GI50 (MDA-MB-231): 15.7 µM (inactive)
GI50 (UACC-257): 43.1 µM (inactive)
GI50 (MDA-N): 20.4 µM (inactive)
GI50 (OVCAR-8): 62.7 µM (inactive)

CSc1ccc(/C=C2\N=C(c3ccccc3)N(/N=C/c3cc4cc(C)ccc4nc3Cl)C2=O)cc1
GI50 (HCC 2998): 16 µM (inactive)
GI50 (HCT-116): 13.6 µM (inactive)
GI50 (UO-31): 15 µM (inactive)
GI50 (PC-3): 16.9 µM (inactive)
GI50 (T47D): 22.9 µM (inactive)
GI50 (SR): 12.1 µM (inactive)
GI50 (SK-MEL-2): 16.8 µM (inactive)
GI50 (CAKI-1): 18.1 µM (inactive)
GI50 (K562): 22 µM (inactive)
GI50 (SNB-19): 16.7 µM (inactive)
GI50 (A549): 19.5 µM (inactive)
GI50 (SK-MEL-5): 16.1 µM (inactive)
GI50 (SF-295): 17.9 µM (inactive)
GI50 (MDA-MB-231): 19.6 µM (inactive)
GI50 (UACC-257): 19.4 µM (inactive)
GI50 (MDA-N): 14.4 µM (inactive)
GI50 (SNB-75): 21.2 µM (inactive)
GI50 (OVCAR-8): 16.1 µM (inactive)

From ChEMBL document CHEMBL1201862, “PubChem BioAssay data set” (2004)
